What all share (assay): NCI tumour cell line growth inhibition, 48 h
The test system of test [1] is MALME-3M melanoma.
Test [2] relates to NCI-H226 lung.
Test [3] relates to OVCAR-4 ovarian.
For test [4], the system named is NCI/ADR-RES ovarian.
Test [5] concerns T-47D breast.
Test [6] relates to RXF 393 renal.
The subject of test [7] is MDA-MB-231 breast.
For test [8], the system named is HCT-15 colon.
Test [9] relates to A549 NSCLC.
For test [10], the system named is U251 CNS.

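Method: 48-hour compound exposure of cells in 96-well plates, five concentrations, linear interpolation of endpoints. At the GI50, growth is halved. TGI: concentration producing complete growth inhibition.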

For `CCN(CC)CCN1c2nc3ccccc3cc2Sc2cc3ccccc3nc21`, the GI50 in test [1] is 1.57 µM; in test [2], 3.31 µM; in test [3], 2.74 µM; in test [4], 2.5 µM; in [5], 3.09 µM; in [6], 3.78 µM. Besides, the GI50 in test [7] was 1.58 µM; in test [8] it was 1.58 µM; in test [9], 2.34 µM; in test [10], 1.95 µM. Further, the TGI in test [1] turned out to be 3.12 µM; in test [2] it was 14.2 µM; in [3], 13.4 µM; in [4], 7.83 µM; in test [5], 12.5 µM; in test [6] it was 18 µM. In addition, the TGI in [7] was found to be 4.03 µM; in test [8], 3.76 µM; in [9] it was 6.12 µM; in test [10], 4.48 µM.

Consider `CNC(=O)c1c(F)cccc1Nc1nc(Nc2cc3c(cc2OC)CCN3C(=O)CN(C)C)nc2[nH]ccc12`, for which the GI50 in test [1] is 1.5 µM; in test [2], 16.2 µM; in [3], 1.87 µM; in test [4] it was 9.69 µM; in test [5], 8.19 µM; in [6], 1.8 µM. The GI50 in [7] is 1.9 µM; in [8], 3.08 µM; in test [9], 1.74 µM; in test [10], 2.39 µM. For the same molecule, the TGI is 3.13 µM in test [1]; 43.6 µM in test [2]; 3.99 µM in [3]; greater than 61.5 µM in test [4]; 28.4 µM in test [5]; 3.6 µM in test [6]. For the same molecule, the TGI in test [7] turned out to be 4.15 µM; in [8], 19 µM; in test [9], 14.4 µM; in [10], 6.61 µM.

Consider `CC(=O)Nc1ccc(S(=O)(=O)N=S(C)C)cc1`, for which the TGI in test [1], in test [2], in test [3], in test [4], in [5] and in test [6] was greater than 100 µM in each case. The TGI in test [7], in test [8], in test [9] and in [10] was greater than 100 µM in each case.

In the case of `COC1C=COC2(C)Oc3c(C)c(O)c4c(O)c(c(C5SCCS5)c(O)c4c3C2=O)NC(=O)/C(C)=C\C=CC(C)C(O)C(C)C(O)C(C)C(OC(C)=O)C1C` (centres undefined), the TGI worked out at 26.7 µM in [1]; 21.8 µM in test [2]; 20.5 µM in test [3]; 34.6 µM in test [4]; 11.7 µM in test [5]; 24.1 µM in [6]. Further, the TGI is 18.9 µM in test [7], 21.8 µM in test [8], 22.4 µM in test [9] and 14.5 µM in test [10].

As to `COS(C)(=O)=O`, the TGI in test [1], in test [2], in test [3], in test [4], in [5] and in test [6] was greater than 2 µM each time. Besides, the TGI in test [7], in test [8], in test [9] and in test [10] was greater than 2 µM in each case.

For the molecule `CCCCOc1ccc(/C=N/Nc2cc(C)nc3ccc(Br)cc23)cc1`, the GI50 in test [1] is 1.91 µM; in test [2], 1.83 µM; in [3] it was 1.67 µM; in test [4] it was 1.96 µM; in test [5], 1.69 µM; in test [6], 1.6 µM. In addition, the GI50 was 1.88 µM in test [7], 1.61 µM in test [8], 1.88 µM in [9] and 1.8 µM in [10]. The TGI in test [1] amounted to 3.4 µM; in test [2] it was 3.82 µM; in test [3], 3.06 µM; in [4], 3.85 µM; in test [5], 3.6 µM; in test [6], 3.05 µM. For the same molecule, the TGI turned out to be 3.51 µM in test [7], 3.05 µM in test [8], 3.52 µM in [9] and 3.27 µM in test [10].

In the case of `O=C(c1ccc([N+](=O)[O-])cc1)C(Br)C(Br)c1ccnc2ccccc12` (centres undefined), the TGI in test [1] was 25.4 µM; in test [2], 33.6 µM; in test [3], 25.5 µM; in [4], greater than 71.7 µM; in test [5], greater than 56.6 µM; in [6], 21.2 µM. In addition, the TGI was 27.8 µM in test [7], 27.3 µM in test [8], 30.5 µM in test [9] and 4.13 µM in [10].

Take `COc1ccc2c(O)c(/C=C3\N=Nc4ncccc43)oc2c1C[C@@H]1CCNC[C@H]1F`: the GI50 in test [1] was 1.89 µM; in test [2], 0.256 µM; in test [3], 1.41 µM; in test [4], 0.915 µM; in test [5], 2.32 µM; in test [6], 0.253 µM. For the same molecule, the GI50 in [7] was 0.728 µM; in test [8], 0.234 µM; in test [9], 1.31 µM; in test [10], 0.299 µM. The TGI in test [1] was determined as 5.23 µM; in test [2], 3.55 µM; in [3], 3.45 µM; in test [4], 4.31 µM; in test [5], 11.8 µM; in [6] it was 0.984 µM. Also, the TGI in [7] was 2.77 µM; in test [8], 1.87 µM; in [9] it was 3.93 µM; in [10], 1.2 µM.

Turning to `C#C[C@@]1(O)[C@@H](CO)O[C@@H](n2cc(C(F)(F)F)c3c(N)ncnc32)[C@@H]1O`, the GI50 is 1.19 µM in test [1]; 2.7 µM in [2]; 2.41 µM in test [3]; 0.487 µM in test [4]; 0.0639 µM in [5]; 0.841 µM in test [6]. Also, the GI50 in [7] was 0.736 µM; in test [8], 0.679 µM; in test [9] it was 0.871 µM; in test [10], 0.409 µM. For the same molecule, the TGI in test [1] was 4.84 µM; in test [2] it was greater than 100 µM; in [3], greater than 100 µM; in test [4], greater than 24.7 µM; in [5], 3.77 µM; in test [6] it was 2.74 µM. The TGI was greater than 100 µM in [7], greater than 25.5 µM in test [8] and greater than 19.7 µM in test [9].

Take `Cc1c2ccncc2c(C)c2c1sc1ccccc12`: the TGI is 29.1 µM in [1]; 42.9 µM in test [2]; 37.8 µM in test [3]; 25 µM in test [4]; greater than 100 µM in test [5]; 23.9 µM in test [6]. The TGI amounted to 44.1 µM in test [7], 31 µM in test [8], 18.3 µM in test [9] and 23.8 µM in test [10].
